Reference: US12629354B2, “Sustained-release pharmaceutical compositions comprising of a sedative drug and uses thereof” (TAIWAN LIPOSOME CO., LTD., priority 2018, dated 2026)
Where a name gives a salt, the structure may show the parent alone.

How the values were obtained:
[1] = plasma free dialysis bag, within 2 hours
Description: Two in vitro release systems were used in the study, the first system was the plasma free environment and the second system was the human plasma environment. […] Each dialysis bag was immersed in 20 mL of PBS at pH 7.4 in a 50-mL centrifuge tube and incubated at 37±1° C. water bath for 168 or 72 hours. At designated time points after incubation (1, 2, 4, 6, 24, 50, 72, 100 and 168 hours of first system and 1, 2, 4, 8, 24, 48 and 72 hours of second system), 1.0 mL aliquot from the 20-mL PBS was sampled and 1.0 mL of fresh PBS was added to replenish the sampling aliquot. Drug concentrations of the sampled aliquots at each time point were analyzed using HPLC to create the in vitro release profile of the tested formulations.

[2] = in vivo; details: rat
Description: The rats were housed in a holding room which operated on a 12-hr light/12-hr dark circadian cycle with free access to water and food.
The rats were divided into two groups (n=4 in each group), one group received intramuscular (IM) injection of 100 μg/kg of free dexmedetomidine hydrochloride, prepared by dissolving the dexmedetomidine hydrochloride in 9.4% sucrose solution with a final concentration of 250 μg/mL. The other group received IM injection of 106 μg/kg of liposomal dexmedetomidine hydrochloride, prepared according to Example 1. Blood samples were collected at 15, 30 min, 1, 2, 4, 8, 24, 48, and 72 hours post-injection. Plasma samples were obtained by centrifugation, kept frozen at −80° C. and analyzed using liquid chromatography-tandem mass spectrometry. The plasma concentrations versus time curves were analyzed using a noncompartmental analysis model in PKSolver (Comput. Methods Programs Biomed. 2010; 99(3):306-314).

[3] = system: guinea pigs; test: Pharmacodynamic study, pin prick test after intracutaneous injection of 4 formulations; assay type: in vivo; details: 1.5 mg ropivacaine with or without 0.2 μg L-DEX in the same injection
Description: The guinea pigs were housed in a holding room which operated on a 12-hr light/12-hr dark circadian cycle with free access to water and food.
Four guinea pigs were used in this study and each guinea pig received 4 intracutaneous injections of 4 different formulations on its back to create 4 individual wheals respectively (i.e., 4 wheals per formulation), as illustrated in FIG. 3A. […] Briefly, 339.0 mg of DMPC, 96.7 mg of cholesterol and 200.0 mg of ropivacaine were dissolved in 10 mL of tert-butanol and lyophilized. The lyophilized cake was hydrated with a 50 mM histidine solution, pH 6, to form multilamellar vesicles (MLVs) with entrapped ropivacaine (liposomal ropivacaine composition), and the concentration of ropivacaine was diluted to 15.0 mg/mL with 9.4% sucrose solution. The anesthesia effect of ropivacaine was assessed at 30 minutes (0.5 hour), 1.0, 1.5, 2.0, 2.5, 3.0, 3.5, 4.0, 5.0, 6.0, 7.0, 8.0, 10 and 24 hours post-injection. The anesthetic effect was determined by observing the guinea pig's response to stimuli around individual wheals (pin prick test). PD data obtained from the pin prick tests were analyzed using an inhibitory effect sigmoid Emax model in PKSolver (Comput Methods Programs Biomed. 2010; 99(3):306-314).

[4] = system: guinea pigs; test: Pharmacodynamic study, pin prick test with L-DEX or saline injected intramuscularly at a distant site; assay type: in vivo; details: 1.5 mg ropivacaine intracutaneous, IM saline or 2.0 μg/kg L-DEX outside the pin prick area
Description: Four guinea pigs were used in this study and was divided into two groups (Groups A and B). […] Each guinea pig in Group A and Group B received 4 intracutaneous injections on its back. Of the 4 intracutaneous injections, 2 injections delivered 1.5 mg of free ropivacaine each and the other two injections delivered 1.5 mg of liposomal ropivacaine composition each. The anesthetic effect of ropivacaine was assessed at 30 minutes (0.5 hour), 1.0, 1.5, 2.0, 2.5, 3.0, 3.5, 4.0, 5.0, 6.0, 7.0, 8.0 and 10 hours post-injection. The anesthetic effect was determined by observing the guinea pig's response to stimuli around individual wheals (i.e., pin prick test). PD data obtained from the pin prick tests was analyzed using an inhibitory effect sigmoid Emax model in PKSolver (Comput Methods Programs Biomed. 2010; 99(3):306-314).

[5] = female, Sprague-Dawley, im, 100 ug/kg

Row | dexmedetomidine released [1] | AUC(0-inf) [2, 5] | AUC(0-t) [2, 5] | Cmax [2, 5] | half-life [2, 5] | dexmedetomidine released as indicated by AUC0-t ([2]; female, Sprague-Dawley, im, 8 h) | dexmedetomidine in the plasma of rats [2] | Structure (SMILES) | TE50 (time to half maximal effect) [3] | Non-response time [4] | TE50 [4]
1 | ~100% | 35.1 ng·h/mL | 31.4 ng·h/mL | 11 ng/mL | 2.36 h | 100% | undetectable | Cc1cccc([C@H](C)c2cnc[nH]2)c1C [Free Dexmedetomidine, dexmedetomidine hydrochloride] | – | – | –
2 | – | – | – | – | – | – | – | CCCN1CCCC[C@H]1C(=O)Nc1c(C)cccc1C [Free Ropivacaine, ropivacaine hydrochloride monohydrate] | 4.5 h | 0.5 h | 1.6 h
